Measurements reported in US20230323369A1, “SCREENING MODEL AND METHOD FOR HBV CCCDNA-TARGETING DRUG” (priority 2020, published 2023).
Where a name gives a salt, the structure may show the parent alone.

Assays:
[1] = tested on: G2-Rccc1a cells; assay: CCK8 cytotoxicity in G2-Rccc1a cells; settings: 1 µM, 4 days
Description: (§1) In this example, the reporter model of Example 1 (HepaRG-Hibit16 integrated with Hibit16 constructed based on HepaRG cells) and the reporter model of Example 2 (HepG2-Rccc1a integrated with Rccc1a constructed based on HepG2) were investigated for screening cccDNA inhibitors. These two cells were used to evaluate the potential of 189 drugs to inhibit cccDNA, including clinical drugs for different diseases or drugs in the clinical research stage. The screening work was carried out in a 96-well cell culture plate, RG-Hibit16 cells were plated at a cell density of 15,000/well, and G2-Rcccla cells were plated at a cell density of 35,000/well. RG-Hibit16 cells were treated with drugs 1 week after plating. For RG-Hibit16, different compounds were added for treatment when Dox was added to induce virus expression; the next day after G2-Rccc1a cells were plated, they were firstly infected with adenovirus Adv-Cre to express Cre recombinase protein, and different compounds were added 2 days later for treatment, and all compounds were diluted to 1 µM at the final concentration, 200 µL per well; new medium was replaced every 2 days, the expression of HiBiT in the cell supernatant was detected after 4 days of compound treatment, and CCK8 detection reagent was added at a ratio of 10:1 to detect the cytotoxicity of the compounds.

[2] = tested on: RG-Hibit16 cells; assay: CCK8 cytotoxicity in RG-Hibit16 cells; settings: 1 µM, 4 days
Description: as §1

[3] = tested on: HBV; assay: HepG2-hNTCP-2B1 HBV infection model; type: cell-based, hepatitis B virus; settings: for effect on intracellular cccDNA: HepG2-hNTCP-2B1, after 8 days of infection
From the text: Detection of HBsAg/HBeAg: The detection procedures of hepatitis B surface antigen (chemiluminescence method CLEIA, product standard number: YZB/Guo 0346-2014) and e antigen (enzyme-linked immunosorbent assay ELISA, product standard number: YZB/Guo 0216-2013) were both carried out according to the detection methods of the kits of Beijing Wantai Company.
(§2) Detection of HBV cccDNA: The modified Hirt method was used for HBV cccDNA extraction, with Tiangen Plasmid Mini Kit. The lysis buffers involved were Buffer I (50 mM Tris, 10 mM EDTA, pH 7.5), Buffer II (1.2 % SDS), Buffer III (3 M CsCl, 1 M potassium acetate, 0.67 M acetic acid), which were used to replace P1, P2 and P3 in the Tiangen Plasmid Mini Kit respectively. The extraction steps and methods were performed by referring to the plasmid extraction method of the kit. The instrument used is Roche’s LightCycler® 96. HBV cccDNA and mitochondrial DNA (mtDNA) were quantified respectively, and the relative values of HBV cccDNA and mtDNA were calculated.
We further verified the functions of these 6 compounds in the HepG2-hNTCP-2B1 infection model. HepG2-hNTCP-2B1 was the single clone 2B1 selected for the highest susceptibility to HBV which is made by overexpressing hNTCP in HepG2 cells. In the evaluation by this model, the cells were firstly infected with HBV virus, washed with PBS to remove the residual virus on the next day, different compounds were added after 2 days, and then the cell supernatant was collected and fresh medium was replaced every 2 days, the viral antigen in the cell supernatant was detected, the cells were lysed after 8 days of infection, the intracellular HBV cccDNA was detected, and the evaluation results were shown in FIG. 7. […] The functions of these five compounds were verified in the HepG2-hNTCP-2B1 infection model, and the evaluation strategy was the same as that of the aforementioned inhibitor.

[4] = tested on: HBV cccDNA; assay: Compound screening in RG-Hibit16 reporter cells (HiBiT in supernatant); type: cell-based, hepatitis B virus; settings: 1 µM, 4 days of compound treatment, among 189 compounds
Description: (§3) Detection of HiBiT: Nano Glo HiBiT Extracellular Detection System (Cat. No. N2421) of Promega Corporation was used for HiBiT detection, and the detection steps were carried out according to the kit instructions.
(§4) The reporter model prepared in Example 1 comprised an HBV variant integrated with 3 repeats of HiBiT sequence. The mRNA transcribed directly from the HBV variant as a template lacked the initiation codon for HiBiT expression, and could not translate the protein attached to the HiBiT tag. Only after the pgRNA transcribed from the HBV variant was reversely transcribed to form cccDNA, the mRNA transcribed from cccDNA as a template could translate the protein attached to the HiBiT tag, so the expression level of HiBiT could be used to indicate the formation of HBV cccDNA. In the reporter model prepared in Example 2, the HiBiT sequence was inserted in the middle of the HBV core sequence, the N-terminus sequence and C-terminus sequence of the core were respectively attached to the C-terminus and N-terminus of the HBV replicon, and loxP sequences were ligated to both ends of the HBV replicon, so that in the absence of Cre recombinase expression, the HiBiT tag lacked a promoter and could not be expressed; but with the expression of Cre recombinase, it could mediate the recombination of double-stranded DNA, so that the linear HBV genome DNA formed a closed circular DNA, and after the circular DNA was formed, the HiBiT tag could use the endogenous promoter of HBV to initiate the expression of the protein attached to the HiBiT tag, so the signal of the HiBiT tag could be used to indicate the formation of recombinant HBV cccDNA, i.e., HBV rcccDNA.

[5] = tested on: HBV rcccDNA; assay: Compound screening in G2-Rccc1a reporter cells (HiBiT in supernatant, Adv-Cre); type: cell-based, hepatitis B virus; settings: 1 µM, 4 days of compound treatment, among 189 compounds
Description: as §3, §4

[6] = tested on: HBV cccDNA; assay: HepaRG-Hibit16 reporter cells, evaluation of HBV inhibitors (Doxycycline induction); type: cell-based, hepatitis B virus; settings: for formation of cccDNA: Doxycycline-induced, cell lysate
Description: as §3, §2
HepaRG-Hibit16 cells were obtained by transfecting HepaRG cells with Hibit16 plasmid and PiggyBac transposase, integrating the HBV variant sequence (Hibit16) and selection markers into the genome of the cells, and screened by puromycin resistance and red fluorescent marker; Doxycycline could activate TRE3G promoter to initiate the expression of iRFP670, as well as the transcription and replication of HBV, thereby generating HiBiT, as shown in FIG. 4A. To evaluate the function of HBV inhibitors in the cells, the cells were first plated, and Doxycycline was added to induce viral transcription and replication while different HBV inhibitors were added for intervention. The cell supernatant was collected every 2 days, the medium was replaced, and the HiBiT signal, HBsAg, HBeAg in the cell supernatant, and the HBV DNA and HBV cccDNA in the cell lysate were detected, and the responses of the cells to HBV inhibitors were shown in FIGS. 4B-F. Tenofovir (tenofovir disoproxil fumarate, TDF) is a nucleotide reverse transcriptase inhibitor, and Morphothiadin (abbreviation: Mor) is an assembly regulator of core particles, which are already in the clinical Phase II/III evaluation stage, and both can inhibit the formation of cccDNA.

[7] = HepG2-hNTCP-2B1, cell supernatant

SMILES | cytotoxicity (CCK8) [1] | cytotoxicity (CCK8) [2] | effect on intracellular cccDNA [3] | effect on HBeAg [3, 7] | expression level of HiBiT (surrogate for HBV cccDNA) [4] | expression level of HiBiT (surrogate for HBV rcccDNA) [5] | further results
CCCCCCCCCCCCCCCC[n+]1ccccc1 [Cetylpyridinium] | no obvious cytotoxicity | no obvious cytotoxicity | – | – | – | – | –
O=C(O)c1cc(-c2ccccc2)nc2ccccc12 [Cinchophen] | – | – | up-regulate | weak promotion effect | up-regulated effects | up-regulated effects | –
Nc1nc(Cl)nc2c1ncn2[C@H]1C[C@H](O)[C@@H](CO)O1 [Cladribine] | – | – | up-regulate | weak promotion effect | up-regulated effects | up-regulated effects | expression level of HBsAg [3, 7]: significantly up-regulate
C[C@@H](Oc1cc(-c2cnn(C3CCNCC3)c2)cnc1N)c1c(Cl)ccc(F)c1Cl [Crizotinib] | no obvious cytotoxicity | no obvious cytotoxicity | – | – | – | most significantly inhibited | –
O=C1c2c(O)cccc2Cc2cccc(O)c21 [Dithranol] | no obvious cytotoxicity | no obvious cytotoxicity | – | – | – | – | –
C[C@H]1O[C@@H](n2cc(F)c(=O)[nH]c2=O)[C@H](O)[C@@H]1O [Doxifluridine] | no obvious cytotoxicity | no obvious cytotoxicity | significant inhibitory effect | – | – | most significantly inhibited | –
N=C(N)NC(=O)Cc1c(Cl)cccc1Cl [Guanfacine] | no obvious cytotoxicity | no obvious cytotoxicity | – | – | most significantly inhibited | – | –
CN1CCc2c(c3ccccc3n2Cc2ccccc2)C1 [Mebhydrolin] | – | – | up-regulate | weak promotion effect | up-regulated effects | up-regulated effects | –
CCOC(=O)C1=C(CN2CCOCC2)NC(c2nccs2)=NC1c1ccc(F)cc1Br (stereo not drawn) [Mor, Morphothiadin] | – | – | – | – | – | – | formation of cccDNA [6]: could inhibit the formation of cccDNA; expression level of HiBiT vs control group ([6]; cell supernatant): significantly lower than that in the control group
COc1ccccc1N1CCN(CC(O)COc2cccc3ccccc23)CC1 (stereo not drawn) [Naftopidil] | – | – | – | weak promotion effect | up-regulated effects | up-regulated effects | –
CC1(C)CCC(C)(C)c2cc(Cn3cccn3)c(/C=C/c3ccc(C(=O)O)cc3)cc21 [Palovarotene] | no obvious cytotoxicity | no obvious cytotoxicity | – | – | most significantly inhibited | most significantly inhibited | inhibition rate against HBsAg [3, 7]: more than 60%; inhibitory effect on HBsAg [3, 7]: relatively poor; inhibition rate against HBV cccDNA ([3]; HepG2-hNTCP-2B1, intracellular, after 8 days of infection): more than 60%
CC(C)OC(=O)OCOP(=O)(CO[C@H](C)Cn1cnc2c(N)ncnc21)OCOC(=O)OC(C)C [TDF, tenofovir disoproxil fumarate] | – | – | – | – | – | – | formation of cccDNA [6]: could inhibit the formation of cccDNA
CC[C@]1(O)C[C@H]2CN(CCc3c([nH]c4ccccc34)[C@@](C(=O)OC)(c3cc4c(cc3OC)N(C=O)[C@H]3[C@@](O)(C(=O)OC)[C@H](OC(C)=O)[C@]5(CC)C=CCN6CC[C@]43[C@@H]65)C2)C1 [Vincristine] | – | – | up-regulate | weak promotion effect | up-regulated effects | up-regulated effects | expression level of HBsAg [3, 7]: significantly up-regulate
